CC50, AC50 and EC50 data for 23 compounds are collected here from ChEMBL document CHEMBL1201862, “PubChem BioAssay data set” (2004).

A short description of assay [1]: microbe, parasite or virus in culture. The class given is functional. To be noted: Mycobacterium tuberculosis.
The nature of assay [2]: HEp-2 cell cytotoxicity, dose response, cytotoxicity control for RSV inhibitor project, HTS (AID 2410). The class given is functional. The conditions noted are these: human respiratory syncytial virus.
Assay [3] in a line: control 3'UTR Renilla luciferase suppression, dose response, counter-screen for Shn3 inhibitor project, cell-based, Clone20-Shn3RL, cherry-picked (AID 624133). The class given is functional.
Assay [4] in a line: cytotoxicity toward NIH3T3 fibroblasts, dose response, counter-screen, cell-based, ATP luminescence, mouse fibroblasts (AID 2010).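 Note: cells exposed to compound for about 90 hours before reading.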 The class given is functional.
Assay [5] in a line: Luminescence Cell-Based Dose Response HTS to Identify Inhibitors of 5'UTR Stem-Loop Driven Prion Protein mRNA Translation in H4 Neuroglioblastoma Cells. [Related pubchem assays: 1827 (Project Summary), 1813 (Primary HTS)]. The class given is functional.
Assay [6] is described as follows: inhibitors of SNCA 5'UTR-driven reporter translation, confirmation, H4 neuroglioma cells, luminescence (AID 1988). The class given is functional, cell-based.
Assay [7] in a line: inhibitors of firefly luciferase expression or activity, dose response, H4 neuroglioma cells, luminescence (AID 1990). The class given is functional, cell-based.
A short description of assay [8]: Shn3 3'UTR reporter inhibitors, dose response, cell-based, Clone20 osteoblasts, firefly luciferase, cherry-picked (AID 624132).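 Note: firefly luciferase luminescence from reporter carrying the Shn3 3'UTR in osteoblasts.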 The class given is functional.
A short description of assay [9]: HepG2 cell cytotoxicity, dose response, cytotoxicity control for Shn3 inhibitor project, CellTiter-Glo, cherry-picked (AID 624134). The class given is functional, cell-based.
For the next assay, the system named is INS1. In words: beta cell apoptosis inhibitors, cytokine rescue, dose response, luminescence, retest (AID 449756).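 Note: cell death triggered by IL-1 beta plus TNF-alpha plus IFN-gamma mixture; protective hits raise ATP signal compared with cytokine alone wells.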 The class given is functional, cell-based. To be noted: Rattus norvegicus.
Assay [10] in a line: inhibitors of intracellular T. cruzi replication, confirmation, NIH3T3 host cells, beta-gal luminescence (AID 2044).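 Note: intracellular parasites grown in NIH/3T3 mouse fibroblasts as host cells; luminescent beta-galactosidase reporter signal from transgenic T. cruzi replicating inside host cells; inhibitors lower the luminescence signal.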 The class given is functional, cell-based.
The target in assay [11] is T1, Corticotropin-releasing factor receptor 2/Corticotropin-releasing factor-binding protein (Homo sapiens, UniProt P24387+Q13324).
T1 sequence (Q13324 whole entry): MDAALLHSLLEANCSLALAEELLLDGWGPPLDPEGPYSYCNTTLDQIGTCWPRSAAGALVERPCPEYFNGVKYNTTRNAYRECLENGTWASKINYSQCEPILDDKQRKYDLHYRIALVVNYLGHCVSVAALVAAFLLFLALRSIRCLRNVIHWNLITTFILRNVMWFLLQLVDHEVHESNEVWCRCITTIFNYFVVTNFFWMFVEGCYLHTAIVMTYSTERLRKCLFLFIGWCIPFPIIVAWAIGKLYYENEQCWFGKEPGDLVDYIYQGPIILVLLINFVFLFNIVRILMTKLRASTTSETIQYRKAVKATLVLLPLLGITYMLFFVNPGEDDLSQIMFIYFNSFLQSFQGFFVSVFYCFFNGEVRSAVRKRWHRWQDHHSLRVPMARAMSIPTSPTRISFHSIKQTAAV
T1 sequence (P24387 whole entry): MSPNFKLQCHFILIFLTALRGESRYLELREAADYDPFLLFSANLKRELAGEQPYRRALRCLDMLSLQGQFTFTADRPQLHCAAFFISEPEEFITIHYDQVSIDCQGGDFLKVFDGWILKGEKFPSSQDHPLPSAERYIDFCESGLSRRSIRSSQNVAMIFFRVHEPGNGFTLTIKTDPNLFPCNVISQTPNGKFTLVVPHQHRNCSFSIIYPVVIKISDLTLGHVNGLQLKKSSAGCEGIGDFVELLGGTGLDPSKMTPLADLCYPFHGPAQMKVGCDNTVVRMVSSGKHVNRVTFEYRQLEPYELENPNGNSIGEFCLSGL
Description: activators of CRF receptor 2 with binding protein – uHTS hits, confirmation (AID 602473). To be noted: read-out: EC50_Mean. The class given is functional.

Assay [12] is described as follows: growth suppression of PTEN-null colon cells, dose response, cell-based, HCT116 PTEN knockout (AID 1047).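 Note: HCT116 colon tumor cells with PTEN knocked out; cells exposed to compound for 60 hours before readout; potency for loss of cell viability measured by luminescence.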 The class given is functional.
Assay [13] concerns the target T2, RNA-binding protein pos-1 (Caenorhabditis elegans, UniProt G5EF15).
T2 sequence (G5EF15 whole entry): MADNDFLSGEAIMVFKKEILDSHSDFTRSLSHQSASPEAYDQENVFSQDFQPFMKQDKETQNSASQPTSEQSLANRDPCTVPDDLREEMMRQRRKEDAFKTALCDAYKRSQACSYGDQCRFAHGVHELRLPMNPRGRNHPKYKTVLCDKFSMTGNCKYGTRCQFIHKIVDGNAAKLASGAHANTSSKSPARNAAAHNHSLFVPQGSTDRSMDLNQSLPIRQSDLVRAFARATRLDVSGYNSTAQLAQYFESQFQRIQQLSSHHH
In words: inhibitors of POS-1/mex-3 RNA binding, dose response, biochemical, fluorescence polarization (AID 1964).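 Note: purified POS-1 fused to maltose binding protein made in E. coli; potency of compounds blocking POS-1 binding to fluorescent RNA.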

Assay [14] addresses T3, Zinc finger protein mex-5 (Caenorhabditis elegans, UniProt Q9XUB2).
T3 sequence (Q9XUB2 whole entry): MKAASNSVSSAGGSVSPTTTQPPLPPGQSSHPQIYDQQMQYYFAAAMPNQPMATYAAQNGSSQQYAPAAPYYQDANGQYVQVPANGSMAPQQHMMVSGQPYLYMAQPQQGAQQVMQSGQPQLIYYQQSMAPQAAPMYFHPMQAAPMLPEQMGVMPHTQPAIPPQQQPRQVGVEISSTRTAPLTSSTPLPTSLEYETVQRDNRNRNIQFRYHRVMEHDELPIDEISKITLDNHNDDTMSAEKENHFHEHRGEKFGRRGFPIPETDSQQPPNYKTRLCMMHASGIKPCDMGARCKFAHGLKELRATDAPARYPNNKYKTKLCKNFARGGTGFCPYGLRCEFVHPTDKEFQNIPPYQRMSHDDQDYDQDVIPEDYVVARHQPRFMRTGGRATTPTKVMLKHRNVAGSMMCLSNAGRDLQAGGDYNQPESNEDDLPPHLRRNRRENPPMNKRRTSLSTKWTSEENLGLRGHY
In words: MEX-5/TCR-2 RNA interaction inhibitors, dose response, biochemical, C. elegans, fluorescence polarization (AID 1960).

Assay [15] addresses T4, Replicative DNA helicase DnaB (Mycobacterium tuberculosis, UniProt P9WMR3).
T4 sequence (P9WMR3 whole entry): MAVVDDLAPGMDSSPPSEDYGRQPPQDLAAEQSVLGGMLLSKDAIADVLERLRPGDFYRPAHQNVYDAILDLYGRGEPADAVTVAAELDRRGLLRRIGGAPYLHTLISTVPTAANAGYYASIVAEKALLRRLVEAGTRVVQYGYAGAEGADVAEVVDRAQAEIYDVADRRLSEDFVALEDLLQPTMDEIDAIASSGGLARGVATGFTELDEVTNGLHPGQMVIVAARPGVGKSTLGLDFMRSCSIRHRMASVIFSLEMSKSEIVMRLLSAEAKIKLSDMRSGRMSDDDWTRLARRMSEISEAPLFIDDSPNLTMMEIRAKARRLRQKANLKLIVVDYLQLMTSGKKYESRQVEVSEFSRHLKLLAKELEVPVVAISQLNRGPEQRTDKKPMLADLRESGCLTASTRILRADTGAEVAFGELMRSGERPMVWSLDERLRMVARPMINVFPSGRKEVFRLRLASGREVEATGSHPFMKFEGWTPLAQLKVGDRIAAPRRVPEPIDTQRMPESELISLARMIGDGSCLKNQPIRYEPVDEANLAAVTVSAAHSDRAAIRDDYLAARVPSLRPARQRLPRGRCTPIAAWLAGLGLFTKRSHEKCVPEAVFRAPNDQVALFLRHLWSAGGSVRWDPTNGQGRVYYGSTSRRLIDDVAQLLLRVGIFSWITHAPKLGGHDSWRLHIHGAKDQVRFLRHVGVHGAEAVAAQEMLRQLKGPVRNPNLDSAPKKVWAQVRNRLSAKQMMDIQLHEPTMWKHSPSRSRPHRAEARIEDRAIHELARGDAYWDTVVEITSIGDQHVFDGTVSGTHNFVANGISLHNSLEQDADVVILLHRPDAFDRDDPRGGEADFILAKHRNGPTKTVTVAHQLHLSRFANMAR
In words: DnaB intein splicing inhibitors, dose response, biochemical, cell-free fluorescence (AID 449749). The class given is functional.

In the next assay the target is T5, Protein RecA (Mycobacterium tuberculosis, UniProt P9WHJ3).
T5 sequence (P9WHJ3 whole entry): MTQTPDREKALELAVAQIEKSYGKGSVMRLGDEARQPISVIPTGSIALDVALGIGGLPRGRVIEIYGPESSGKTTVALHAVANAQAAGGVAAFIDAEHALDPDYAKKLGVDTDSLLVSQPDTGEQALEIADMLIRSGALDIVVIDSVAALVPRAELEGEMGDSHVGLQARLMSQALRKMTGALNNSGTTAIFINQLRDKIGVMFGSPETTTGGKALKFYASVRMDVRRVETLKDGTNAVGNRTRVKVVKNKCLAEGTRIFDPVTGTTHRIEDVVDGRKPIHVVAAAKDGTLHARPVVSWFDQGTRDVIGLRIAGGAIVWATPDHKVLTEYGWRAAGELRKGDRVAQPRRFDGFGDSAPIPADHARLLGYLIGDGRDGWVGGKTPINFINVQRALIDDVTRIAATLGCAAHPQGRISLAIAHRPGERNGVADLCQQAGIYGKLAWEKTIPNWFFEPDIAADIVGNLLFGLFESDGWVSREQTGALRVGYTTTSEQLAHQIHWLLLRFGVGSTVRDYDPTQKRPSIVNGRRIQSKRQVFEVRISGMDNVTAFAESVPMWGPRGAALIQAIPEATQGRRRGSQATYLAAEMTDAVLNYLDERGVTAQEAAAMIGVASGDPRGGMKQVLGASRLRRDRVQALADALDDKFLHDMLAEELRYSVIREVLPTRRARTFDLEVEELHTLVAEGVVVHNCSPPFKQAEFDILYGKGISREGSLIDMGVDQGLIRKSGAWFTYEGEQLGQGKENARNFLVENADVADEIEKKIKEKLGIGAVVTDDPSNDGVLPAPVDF
In words: Fluorescence Cell-Free Homogeneous Dose Retest to Identify Inhibitors of RecA-Intein Splicing Activity. [Related pubchem assays (depositor defined):AID2097, AID2223, AID489010, AID492950]. The class given is functional.

The source made the active and inactive calls. Cut-off read from the data, not from the text of the source, for most assays here: actives have a measured EC50 and inactives only a lower limit.

As for `Cc1nn(Cc2ccccc2Cl)c2sc(C(=O)NCCCn3ccnc3)cc12`, the CC50 in assay [1] was > 40 µM (active). In the case of `CCOc1ccc(S(=O)(=O)N2CCN(C(=O)c3cc4c(s3)CCCC4)CC2)cc1`, the CC50 in assay [2] was 28.8 µM (active); in assay [1], > 40 µM (active). Regarding `Cc1nn(CCc2nn[nH]n2)c2nc(-c3ccc(Br)cc3)cc(C(F)(F)F)c12`, the CC50 in [1] is > 40 µM (active).

As to `COc1cc2nc(N3CCN(c4cc(C)ccc4C)CC3)nc(N)c2cc1OC`, the concentration at half-maximal activity (AC50) is 12.7 µM (active) in [3], 5.44 µM (active) in assay [8], 10.2 µM (active) in [9] and 7.37 µM (active) in the assay with INS1. In addition, the EC50 in assay [4] is 16.7 µM (active); in [5], > 120 µM (not active); in assay [6] it was > 120 µM (not active); in assay [7], > 120 µM (not active); in [10], 3.35 µM (active). Also, the CC50 in [1] was 3.41 µM (active). With `CC(C)(C)N1CC2([N+](=O)[O-])CN(C(C)(C)C)CC([N+](=O)[O-])(C1)C2`, the EC50 in assay [11] was 4.6 µM (active). Regarding `COc1ccc(CN2C[C@H](Cc3ccccc3)[C@@H](CC(=O)Nc3ccccc3)C2=O)cc1`, in assay [2], the CC50 is 22 µM (active). The same measure, in the same setting: as for `O=C(Nc1ccc(N2CCOCC2)cc1)c1cc2c(s1)CCCCC2`, the figure is 23.8 µM (active). Turning to `S=C(NCCc1ccc(Cl)cc1)Nc1ccc(Cl)cc1Cl`, the EC50 in assay [12] is 30.9 µM (active).

For `CCCn1c(N2CCN(Cc3ccc(Cl)cc3)CC2)nc2ccccc21`, the CC50 in assay [1] was > 40 µM (active). Take `Cc1ccc(NC(=O)CN(C)CC(=O)Nc2sc3c(c2C(N)=O)CCC3)cc1`: the CC50 in assay [2] is 28.1 µM (active).

Consider `FC(F)(F)c1cc(C(F)(F)F)n2nc(-c3sccc3-n3cccc3)cc2n1`, for which the EC50 in assay [13] and in [14] was > 300 µM (not active) each time. Take `CC(=O)CSc1ncnc2c1cnn2-c1ccccc1`: the CC50 in assay [2] was 42.5 µM (active). For the compound `CCc1ccc(/C=C2\Oc3c(ccc(O)c3CN3CCN(CCO)CC3)C2=O)cc1`, the EC50 in [13] is 37.1 µM (active); in assay [14] it was 73.3 µM (active).

With `O=C(Cn1cncn1)N/N=C/c1c2ccccc2cc2ccccc12`, the EC50 in assay [13] and in [14] was > 300 µM (not active) throughout. For `CC/C(NCCCN(C)C)=C1/C(=O)NC(=O)N(c2ccc(OC)cc2)C1=O`, the EC50 in assay [13] and in assay [14] was > 300 µM (not active) each time.

For `CC(=O)Nc1cccc(-c2cc(-c3c(Cl)cccc3Cl)no2)c1`, in assay [2], the CC50 was 18.3 µM (active).

Take `CCN1C(=C(C#N)C#N)C=Cc2ccccc21`: the EC50 was > 300 µM (inconclusive) in [13] and > 300 µM (not active) in [14]. As to `CCOC(=O)N1CCN(c2nc(N(c3ccccc3)c3ccccc3)nc(-n3ccnc3)n2)CC1`, the CC50 in assay [1] is > 40 µM (active). As for `CCOC(=O)c1cnc(SCc2cccc(C)c2)nc1N`, the CC50 in [2] is 43.8 µM (active). In the case of `CCCN1CCc2c(sc(NC(=O)c3ccc(S(=O)(=O)N4CCCC4)cc3)c2C(N)=O)C1`, the EC50 in [11] is 3.22 µM (active).

In the case of `Cc1cc[n+](C2=C([N-]S(=O)(=O)c3cccs3)C(=O)c3ccccc3C2=O)cc1C`, the EC50 in assay [4] was > 30 µM (not active); in assay [13] it was > 300 µM (not active); in assay [14], > 300 µM (not active); at Protein RecA, 3.8 µM (active); in [10], > 60 µM (not active). For the same compound, the AC50 in assay [15] was 3.69 µM (active). With `Cc1ccc(N(C)S(=O)(=O)c2c(C)noc2/C=C/N(C)C)cc1`, the EC50 in assay [13] and in assay [14] was > 300 µM (not active) in each case. Consider `NC(=O)c1cc(-c2csc(-c3cccnc3)n2)ccc1O`, for which, in assay [2], the CC50 is 22.7 µM (active).
